Results published in US20250312462A1, “PAK1 DEGRADERS AND METHODS OF USE THEREOF” (INSTITUTE FOR CANCER RESEARCH D/B/A THE RESEARCH INSTITUTE …, priority 2022, published 2025).

Assays:
NEK2 = NEK2 (Homo sapiens, UniProt P51955); assay: KINOMEscan; details: read-out: Percent Control
Procedure: (§1) The kinase engagement assay (KINOMEscan®) was performed by DiscoverX assessing binding abilities toward a set of kinases.

PIK3CA(Q546K) = PIK3CA(Q546K) (Homo sapiens, UniProt P42336, Q546K); assay: KINOMEscan; details: read-out: Percent Control
Procedure: as §1

TEC = TEC (Homo sapiens, UniProt P42680); assay: KINOMEscan; details: read-out: Percent Control
Procedure: as §1

SRC = SRC (Homo sapiens, UniProt P12931); assay: KINOMEscan; details: read-out: Percent Control
Procedure: as §1

PAK2 = PAK2 (Homo sapiens, UniProt Q13177); assay: Z'-LYTE FRET kinase inhibition assay; assay type: biochemical; parameters: PAK2 (full length); purchased Invitrogen PV4565
Procedure: The activity/inhibition of human recombinant PAK1 (kinase domain) or PAK2 (full length) was determined by measuring the phosphorylation of a FRET peptide substrate (Ser/Thr19) labeled with Coumarin and Fluorescein using Z′-LYTE™ assay (Invitrogen). The 10 μL assay mixtures contained 50 mM HEPES (pH 7.5), 0.01% Brij-35, 10 mM MgCl2, 1 mM EGTA, 2 μM FRET peptide substrate, and PAK enzyme (20 pM PAK1; 50 pM PAK2). Incubations were carried out at 22° C. in black polypropylene 384-well plates (Corning Costar). Prior to the assay, enzyme, FRET peptide substrate and serially diluted test compounds were preincubated together in assay buffer (7.5 μL) for 10 minutes, and the assay was initiated by the addition of 2.5 μL assay buffer containing 4×ATP (160 μM PAK1; 480 μM PAK2). Following the 60-minute incubation, the assay mixtures were quenched by the addition of 5 μL of Z′-LYTE™ development reagent, and 1 hour later the emissions of Coumarin (445 nm) and Fluorescein (520 nm) were determined after excitation at 400 nm using an Envision plate reader (Perkin Elmer). […].

DCAMKL2 = DCAMKL2 (Homo sapiens, UniProt Q8N568); assay: KINOMEscan; details: read-out: Percent Control
Procedure: as §1

SNRK = SNRK (Homo sapiens, UniProt Q9NRH2); assay: KINOMEscan; details: read-out: Percent Control
Procedure: as §1

EGFR(G719C) = EGFR(G719C) (Homo sapiens, UniProt P00533, G719C); assay: KINOMEscan; details: read-out: Percent Control
Procedure: as §1

TIE2 = TIE2 (Homo sapiens, UniProt Q02763); assay: KINOMEscan; details: read-out: Percent Control
Procedure: as §1

PRKCH = PRKCH (Homo sapiens, UniProt P24723); assay: KINOMEscan; details: read-out: Percent Control
Procedure: as §1

SGK = SGK (Homo sapiens, UniProt O00141); assay: KINOMEscan; details: read-out: Percent Control
Procedure: as §1

PIK3CA(H1047L) = PIK3CA(H1047L) (Homo sapiens, UniProt P42336, H1047L); assay: KINOMEscan; details: read-out: Percent Control
Procedure: as §1

FLT3-autoinhibited = FLT3-autoinhibited (Homo sapiens, UniProt P36888); assay: KINOMEscan; details: read-out: Percent Control
Procedure: as §1

IRAK3 = IRAK3 (Homo sapiens, UniProt Q9Y616); assay: KINOMEscan; details: read-out: Percent Control
Procedure: as §1

PFTAIRE2 = PFTAIRE2 (Homo sapiens, UniProt Q96Q40); assay: KINOMEscan; details: read-out: Percent Control
Procedure: as §1

ERK8 = ERK8 (Homo sapiens, UniProt Q8TD08); assay: KINOMEscan; details: read-out: Percent Control
Procedure: as §1

CAMK2A = CAMK2A (Homo sapiens, UniProt Q9UQM7); assay: KINOMEscan; details: read-out: Percent Control
Procedure: as §1

RAF1 = RAF1 (Homo sapiens, UniProt P04049); assay: KINOMEscan; details: read-out: Percent Control
Procedure: as §1

CDK4-cyclinD1 = CDK4-cyclinD1 (Homo sapiens, UniProt P11802); assay: KINOMEscan; details: read-out: Percent Control
Procedure: as §1

PIP5K2C = PIP5K2C (Homo sapiens, UniProt Q8TBX8); assay: KINOMEscan; details: read-out: Percent Control
Procedure: as §1

MAP3K1 = MAP3K1 (Homo sapiens, UniProt Q13233); assay: KINOMEscan; details: read-out: Percent Control
Procedure: as §1

HCK = HCK (Homo sapiens, UniProt P08631); assay: KINOMEscan; details: read-out: Percent Control
Procedure: as §1

FLT3(R834Q) = FLT3(R834Q) (Homo sapiens, UniProt P36888, R834Q); assay: KINOMEscan; details: read-out: Percent Control
Procedure: as §1

EGFR(G719S) = EGFR(G719S) (Homo sapiens, UniProt P00533, G719S); assay: KINOMEscan; details: read-out: Percent Control
Procedure: as §1

p38-alpha = p38-alpha (Homo sapiens, UniProt Q16539); assay: KINOMEscan; details: read-out: Percent Control
Procedure: as §1

MARK3 = MARK3 (Homo sapiens, UniProt P27448); assay: KINOMEscan; details: read-out: Percent Control
Procedure: as §1

HIPK2 = HIPK2 (Homo sapiens, UniProt Q9H2X6); assay: KINOMEscan; details: read-out: Percent Control
Procedure: as §1

CDK11 = CDK11 (Homo sapiens, UniProt Q9BWU1); assay: KINOMEscan; details: read-out: Percent Control
Procedure: as §1

PIP5K1A = PIP5K1A (Homo sapiens, UniProt Q99755); assay: KINOMEscan; details: read-out: Percent Control
Procedure: as §1

MST1 = MST1 (Homo sapiens, UniProt Q13043); assay: KINOMEscan; details: read-out: Percent Control
Procedure: as §1

ACVR2A = ACVR2A (Homo sapiens, UniProt P27037); assay: KINOMEscan; details: read-out: Percent Control
Procedure: as §1

Sequence of EGFR(G719S) (P00533 25-1210 G719S): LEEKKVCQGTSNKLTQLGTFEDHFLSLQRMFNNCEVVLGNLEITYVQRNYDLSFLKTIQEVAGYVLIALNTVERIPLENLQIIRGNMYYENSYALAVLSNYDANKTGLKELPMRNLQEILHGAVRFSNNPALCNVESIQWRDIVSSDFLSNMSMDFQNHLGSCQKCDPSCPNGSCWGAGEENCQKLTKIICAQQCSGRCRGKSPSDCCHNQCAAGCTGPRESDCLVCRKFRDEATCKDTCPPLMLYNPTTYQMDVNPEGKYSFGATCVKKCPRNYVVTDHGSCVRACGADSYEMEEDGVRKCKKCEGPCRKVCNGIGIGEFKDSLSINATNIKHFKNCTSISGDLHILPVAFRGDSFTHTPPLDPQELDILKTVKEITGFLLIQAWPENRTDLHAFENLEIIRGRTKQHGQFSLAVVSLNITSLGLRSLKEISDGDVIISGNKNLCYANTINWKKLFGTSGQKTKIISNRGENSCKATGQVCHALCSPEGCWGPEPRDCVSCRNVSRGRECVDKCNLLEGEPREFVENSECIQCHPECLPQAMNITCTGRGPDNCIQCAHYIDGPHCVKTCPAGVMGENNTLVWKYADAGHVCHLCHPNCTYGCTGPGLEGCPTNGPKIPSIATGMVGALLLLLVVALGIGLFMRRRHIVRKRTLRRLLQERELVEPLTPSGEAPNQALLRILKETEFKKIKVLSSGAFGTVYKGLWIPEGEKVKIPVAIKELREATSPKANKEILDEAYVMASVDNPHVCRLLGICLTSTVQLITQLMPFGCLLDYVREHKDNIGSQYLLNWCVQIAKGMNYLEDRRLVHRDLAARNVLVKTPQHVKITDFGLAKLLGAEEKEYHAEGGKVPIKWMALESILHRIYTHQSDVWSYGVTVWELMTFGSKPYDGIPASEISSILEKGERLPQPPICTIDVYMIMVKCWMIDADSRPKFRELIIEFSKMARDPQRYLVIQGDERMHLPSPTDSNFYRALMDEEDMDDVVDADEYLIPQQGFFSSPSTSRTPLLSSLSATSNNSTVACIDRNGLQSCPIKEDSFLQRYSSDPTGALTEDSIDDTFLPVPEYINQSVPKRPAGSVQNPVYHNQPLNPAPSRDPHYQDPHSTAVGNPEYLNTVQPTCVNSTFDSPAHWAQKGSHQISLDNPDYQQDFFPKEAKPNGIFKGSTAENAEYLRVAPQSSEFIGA
Sequence of SGK (O00141 whole entry): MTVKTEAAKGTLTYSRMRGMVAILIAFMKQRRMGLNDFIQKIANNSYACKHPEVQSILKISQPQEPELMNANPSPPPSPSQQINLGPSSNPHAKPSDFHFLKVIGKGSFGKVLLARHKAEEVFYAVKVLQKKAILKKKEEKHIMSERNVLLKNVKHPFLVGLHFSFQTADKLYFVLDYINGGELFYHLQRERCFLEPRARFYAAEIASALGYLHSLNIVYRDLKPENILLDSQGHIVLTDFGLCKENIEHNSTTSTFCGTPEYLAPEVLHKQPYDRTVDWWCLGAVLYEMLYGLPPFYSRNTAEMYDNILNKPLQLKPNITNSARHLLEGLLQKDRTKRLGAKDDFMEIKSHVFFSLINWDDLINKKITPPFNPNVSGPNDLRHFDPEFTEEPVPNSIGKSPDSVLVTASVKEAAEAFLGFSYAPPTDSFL
Sequence of MST1 (Q13043 whole entry): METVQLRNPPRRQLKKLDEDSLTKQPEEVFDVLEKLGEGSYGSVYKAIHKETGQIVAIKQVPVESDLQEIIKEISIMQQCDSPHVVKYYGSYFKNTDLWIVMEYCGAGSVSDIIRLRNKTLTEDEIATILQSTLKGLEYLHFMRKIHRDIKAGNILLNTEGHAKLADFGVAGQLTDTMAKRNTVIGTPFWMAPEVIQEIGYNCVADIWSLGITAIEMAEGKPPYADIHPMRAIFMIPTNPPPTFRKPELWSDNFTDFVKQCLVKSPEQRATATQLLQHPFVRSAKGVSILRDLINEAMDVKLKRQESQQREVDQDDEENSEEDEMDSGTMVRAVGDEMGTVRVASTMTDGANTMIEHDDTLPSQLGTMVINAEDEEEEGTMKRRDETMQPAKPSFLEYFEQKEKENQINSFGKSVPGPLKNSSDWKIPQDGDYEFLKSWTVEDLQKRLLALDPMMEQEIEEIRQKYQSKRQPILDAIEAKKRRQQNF
Sequence of CDK4-cyclinD1 (P11802 whole entry): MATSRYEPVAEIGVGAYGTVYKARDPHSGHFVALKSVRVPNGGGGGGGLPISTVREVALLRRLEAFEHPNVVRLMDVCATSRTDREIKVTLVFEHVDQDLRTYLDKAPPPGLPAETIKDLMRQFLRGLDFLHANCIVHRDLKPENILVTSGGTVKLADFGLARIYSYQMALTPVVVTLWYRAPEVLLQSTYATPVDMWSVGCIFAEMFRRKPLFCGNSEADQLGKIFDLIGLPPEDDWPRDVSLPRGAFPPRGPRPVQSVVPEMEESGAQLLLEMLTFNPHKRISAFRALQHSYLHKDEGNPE
Sequence of CDK4-cyclinD1 (P24385 whole entry partner): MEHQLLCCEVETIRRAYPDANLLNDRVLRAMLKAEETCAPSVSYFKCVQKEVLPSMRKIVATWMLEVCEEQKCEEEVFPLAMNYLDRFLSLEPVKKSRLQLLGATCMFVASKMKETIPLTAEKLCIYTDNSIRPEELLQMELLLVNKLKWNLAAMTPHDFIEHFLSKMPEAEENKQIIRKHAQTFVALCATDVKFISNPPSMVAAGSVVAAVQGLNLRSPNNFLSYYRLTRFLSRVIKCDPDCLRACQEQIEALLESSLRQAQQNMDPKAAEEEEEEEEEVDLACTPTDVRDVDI
Sequence of DCAMKL2 (Q8N568 whole entry): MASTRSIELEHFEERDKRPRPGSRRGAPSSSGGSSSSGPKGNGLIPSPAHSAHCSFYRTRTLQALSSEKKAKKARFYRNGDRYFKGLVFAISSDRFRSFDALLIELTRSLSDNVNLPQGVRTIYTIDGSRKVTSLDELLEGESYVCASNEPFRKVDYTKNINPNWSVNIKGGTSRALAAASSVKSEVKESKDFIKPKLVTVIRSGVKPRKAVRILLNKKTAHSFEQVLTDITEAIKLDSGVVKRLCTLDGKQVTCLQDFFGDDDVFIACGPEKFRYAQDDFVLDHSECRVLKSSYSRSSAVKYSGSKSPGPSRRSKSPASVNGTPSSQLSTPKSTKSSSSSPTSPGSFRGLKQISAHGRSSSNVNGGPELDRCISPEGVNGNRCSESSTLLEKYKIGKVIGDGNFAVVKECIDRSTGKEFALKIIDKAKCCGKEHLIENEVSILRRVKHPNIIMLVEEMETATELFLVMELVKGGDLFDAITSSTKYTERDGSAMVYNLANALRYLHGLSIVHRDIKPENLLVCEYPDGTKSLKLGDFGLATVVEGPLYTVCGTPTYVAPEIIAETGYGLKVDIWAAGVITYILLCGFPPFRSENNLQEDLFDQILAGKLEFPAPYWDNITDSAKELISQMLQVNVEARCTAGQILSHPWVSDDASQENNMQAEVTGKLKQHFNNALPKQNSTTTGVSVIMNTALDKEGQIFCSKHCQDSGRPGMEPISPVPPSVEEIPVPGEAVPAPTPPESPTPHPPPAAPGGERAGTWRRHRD
Sequence of TEC (P42680 whole entry): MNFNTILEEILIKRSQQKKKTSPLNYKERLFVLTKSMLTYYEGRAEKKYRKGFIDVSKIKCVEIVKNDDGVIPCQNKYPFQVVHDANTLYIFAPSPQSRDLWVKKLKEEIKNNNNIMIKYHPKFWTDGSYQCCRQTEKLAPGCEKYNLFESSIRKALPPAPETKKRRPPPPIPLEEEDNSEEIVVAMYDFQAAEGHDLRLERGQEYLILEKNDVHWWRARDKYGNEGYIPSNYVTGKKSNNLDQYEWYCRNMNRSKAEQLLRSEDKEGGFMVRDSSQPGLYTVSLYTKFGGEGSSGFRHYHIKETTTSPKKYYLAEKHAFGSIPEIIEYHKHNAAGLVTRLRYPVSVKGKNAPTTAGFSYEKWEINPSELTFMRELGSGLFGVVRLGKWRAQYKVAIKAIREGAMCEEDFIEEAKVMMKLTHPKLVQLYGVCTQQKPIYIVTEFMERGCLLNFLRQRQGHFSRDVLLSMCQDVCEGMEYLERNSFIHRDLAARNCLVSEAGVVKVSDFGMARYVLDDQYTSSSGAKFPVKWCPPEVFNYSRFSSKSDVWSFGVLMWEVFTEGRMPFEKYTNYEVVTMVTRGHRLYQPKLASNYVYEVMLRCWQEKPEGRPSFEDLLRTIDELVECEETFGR
Sequence of RAF1 (P04049 whole entry): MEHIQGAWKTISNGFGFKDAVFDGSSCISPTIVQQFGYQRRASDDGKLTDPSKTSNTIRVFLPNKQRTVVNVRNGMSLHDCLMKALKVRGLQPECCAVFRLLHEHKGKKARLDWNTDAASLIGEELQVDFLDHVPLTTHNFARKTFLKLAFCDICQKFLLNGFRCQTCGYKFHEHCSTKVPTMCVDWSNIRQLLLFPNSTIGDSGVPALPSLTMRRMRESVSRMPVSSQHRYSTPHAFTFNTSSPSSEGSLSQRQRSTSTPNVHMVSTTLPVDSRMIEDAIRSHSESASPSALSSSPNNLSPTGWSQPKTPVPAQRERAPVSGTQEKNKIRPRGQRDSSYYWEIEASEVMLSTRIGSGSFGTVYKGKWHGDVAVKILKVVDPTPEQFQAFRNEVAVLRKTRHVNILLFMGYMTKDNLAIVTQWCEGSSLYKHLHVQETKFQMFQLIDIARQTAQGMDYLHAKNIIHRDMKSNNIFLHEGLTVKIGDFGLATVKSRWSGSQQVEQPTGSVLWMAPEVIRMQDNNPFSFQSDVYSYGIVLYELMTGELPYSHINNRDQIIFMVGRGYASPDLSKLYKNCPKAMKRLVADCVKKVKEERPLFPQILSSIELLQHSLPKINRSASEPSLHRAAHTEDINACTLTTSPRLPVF

## O=C1CCC(N2C(=O)c3cccc(NCCCCCCCCNC(=O)N4CC[C@H](NC5=Nc6cc(F)ccc6N(CC(F)F)c6ccc(Cl)cc65)C4)c3C2=O)C(=O)N1 (stereo partly drawn) [BJG-05-039, (3S)-3-((2-Chloro-5-(2,2-difluoroethyl)-8-fluoro-5H-dibenzo[b,e][1,4]diazepin-11-yl)amino)-N-(8-((2-(2,6-dioxopiperidin-3-yl)-1,3-dioxoisoindolin-4-yl)amino)octyl)pyrrolidine-1-carboxamide]
NEK2
  remaining binding at 10 µM: 52%
PIK3CA(Q546K)
  remaining binding at 10 µM: 100%
TEC
  remaining binding at 10 µM: 82%
SRC
  remaining binding at 10 µM: 88%
PAK2
  IC50: > 10 µM
DCAMKL2
  remaining binding at 10 µM: 92%
SNRK
  remaining binding at 10 µM: 89%
EGFR(G719C)
  remaining binding at 10 µM: 83%
TIE2
  remaining binding at 10 µM: 98%
PRKCH
  remaining binding at 10 µM: 94%
SGK
  remaining binding at 10 µM: 100%
PIK3CA(H1047L)
  remaining binding at 10 µM: 63%
FLT3-autoinhibited
  remaining binding at 10 µM: 100%
IRAK3
  remaining binding at 10 µM: 55%
PFTAIRE2
  remaining binding at 10 µM: 78%
ERK8
  remaining binding at 10 µM: 63%
CAMK2A
  remaining binding at 10 µM: 39%
RAF1
  remaining binding at 10 µM: 97%
CDK4-cyclinD1
  remaining binding at 10 µM: 90%
PIP5K2C
  remaining binding at 10 µM: 100%
MAP3K1
  remaining binding at 10 µM: 100%
HCK
  remaining binding at 10 µM: 90%
FLT3(R834Q)
  remaining binding at 10 µM: 100%
EGFR(G719S)
  remaining binding at 10 µM: 84%
p38-alpha
  remaining binding at 10 µM: 60%
MARK3
  remaining binding at 10 µM: 83%
HIPK2
  remaining binding at 10 µM: 100%
CDK11
  remaining binding at 10 µM: 85%
PIP5K1A
  remaining binding at 10 µM: 95%
MST1
  remaining binding at 10 µM: 90%
ACVR2A
  remaining binding at 10 µM: 51%
